Results on one compound are retold here after patent publication US20110217265A1, “Screening for Inhibitors of HCV Amphipathic Helix (AH) Function” (priority 2008, published 2011).

Molecules are shown by their SMILES.

The target in assay [1] is T1, genotype 1b 4BAH2 (Hepatitis C virus genotype 1b, UniProt Q9WMX2). In words: DLS assay of 4BAH2-induced POPC lipid vesicle aggregation, genotype 1b peptide. Type of assay: biochemical. More on the design: purchased Anaspec Corporation (San Jose, Calif., USA); host or cells: chemical synthesis. The note with it: POPC vesicles. The protocol:
Dynamic light scattering. Dynamic light scattering was performed by a 90Plus particle size analyzer, and the results were analyzed by digital autocorrelator software (Brookhaven Instruments Corporation, New York). All measurements were taken at a scattering angle of 90°, where the reflection effect is minimized. Dynamic light scattering (DLS) is a well established technique for measuring particle size over the size range from a few nanometers to a few microns. The concept uses the idea that small particles in a suspension move in a random pattern, i.e., Brownian motion. When a coherent source of light (such as a laser) having a known frequency is directed at the moving particles, the light is scattered at a different frequency. The shift in light frequency is related to the size of the particles causing the shift. Due to their higher average velocity, smaller particles cause a greater shift in the light frequency than larger particles. […]
Dynamic Light Scattering. Dynamic light scattering (DLS) was performed using a doubled, Nd:YAG laser (model 532 DPSS, Coherent Laser Group, Santa Clara, Calif.) with a wavelength, λ, of […] and a Brookhaven digital autocorrelator, and analyzed by digital autocorrelator software (Brookhaven Instruments Corporation, New York, USA). […] DLS results were analyzed to give an intensity-weighted size distribution using a discrete Laplace inversion routine. […]

For assay [2], the target named is genotype 2a 4BAH2 (Hepatitis C virus genotype 2a, UniProt Q99IB8). Briefly: QCM-D of 4BAH2 membrane association with POPC bilayer, genotype 2a. The assay is classed as binding. Set-up: purchased Anaspec Corporation (San Jose, Calif., USA). The protocol:
(§1) Quartz Crystal Microbalance-Dissipation (QCM-D). Adsorption kinetics and the properties of the adsorbed layer were studied using a Q-Sense E4, multiple channel system (Q-Sense AB, Gothenburg, Sweden). The samples are introduced using a peristaltic pump with flow rate of 0.1 mL·min^−1. AT-cut quartz crystals (Q-Sense) of 14 mm in diameter coated with a SiOx layer were used for all vesicle interaction and adsorption experiments. Each QCM crystal was treated with oxygen plasma at ˜80 watts for 3 min prior to measurement (March Plasmod Plasma Etcher, March Instruments, California, USA). Each crystal was initially driven near its resonance frequency as indicated by a maximum in the current. To capture the characteristic dissipation, the drive circuit was short-circuited and the exponential decay of the crystal oscillation was recorded and analyzed, yielding the frequency and dissipation changes at 5, 15, 25, 35, 45, 55, and 65 MHz. The temperature of the Q-Sense cell was set at 25.0° C. and accurately controlled by a Peltier element in the cell with fluctuation smaller than ±0.05° C. All experiments were repeated at least three times, with a standard deviation of less than 2%.

Assay [3] has as its system genotype 2b luciferase reporter-linked HCV replicons. Briefly: HCV replication assay in combination with NS3 protease inhibitor SCH503034. Type of assay: cell-based, Hepatitis C Virus. The note with it: combination with various concentrations of SCH503034, FIG. 11. How it is done: FIG. 11. 4BAH2 inhibitors can increase the anti-HCV activity of agents targeting other elements of HCV. The compound of FIG. 10 was tested in standard HCV replication assays as in FIG. 10 but in the presence of various concentrations of an NS3 protease inhibitor (SCH503034, “SCH”). Note that in these assays a genotype 2b luciferase reporter-linked HCV replicons was used, indicating the broad spectrum potential of the C4 compound against multiple HCV genotypes.
To determine the optimum combination of an HCV AH function inhibiting agent, such as 5-(N-Methyl-N-isobutyl)amiloride, with other anti-HCV agents, HCV replication assays and/or animal studies can be performed in the presence of various combinations of the various anti-HCV agents. Increased inhibition of replication in the presence of an additional agent (above that observed with monotherapy) is evidence for the potential benefit of the combination therapy. For example, HCV replication assays employing a luciferase reporter-linked HCV genome in the presence of various combinations of 3-amino-N-carbamimidoyl-6-chloro-5-(isobutyl(methyl)amino)pyrazine-2-carboxamidepyrazine-2-carboxamide and an NS3 protease inhibitor (SCH503034) are described elsewhere in this application and some results are shown in FIG. 11.
Effect of hits on HCV replication. […]

In assay [4] the target is T1, genotype 1b 4BAH2. Briefly: QCM-D of 4BAH2 membrane association with POPC bilayer, genotype 1b. Set-up: purchased Anaspec Corporation (San Jose, Calif., USA). The assay is classed as binding. The protocol:
as §1

T1 sequence (Q9WMX2 1754-1776): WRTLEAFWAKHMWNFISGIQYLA
genotype 2a 4BAH2, sequence (Q99IB8 1758-1780): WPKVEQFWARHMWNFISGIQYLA

Consider `CC(C)CN(C)c1nc(N)c(C(=O)NC(=N)N)nc1Cl` [C4, 3-amino-N-carbamimidoyl-6-chloro-5-(isobutyl(methyl)amino)pyrazine-2-carboxamide], for which the “Inhibition of genotype 1b 4BAH2-mediated vesicle aggregation (DLS)” value in assay [1] is listed as “inhibited genotype 1b 4BAH2-mediated vesicle aggregation”. In assay [2], the “Effect on genotype 2a 4BAH2 membrane association (QCM-D)” value is “no effect”. Besides, in assay [3], the “Effect on anti-HCV activity of NS3 protease inhibitor SCH503034” value was “increases the anti-HCV activity”. Moreover, the “Effect on genotype 1b 4BAH2 membrane association (QCM-D)” value in assay [4] was “no effect”.
